System: ANKA strain of P. berghei
Test: Single dose STI in vivo screen in infected mice
Design: species or system Plasmodium berghei
Settings: for Survival (days) 10 mg/kg po: single 10 mg/kg po in 3% ethanol and 7% Tween 80; for Survival (days) 10 mg/kg po / Survival (days) 10 mg/kg SSV po / Survival (days) 10 mg/kg sc: untreated 6-7 days; for Activity (%) 10 mg/kg po: single 10 mg/kg po in 3% ethanol and 7% Tween 80 on day 1 post-infection; for Survival (days) 10 mg/kg SSV po: single 10 mg/kg po in SSV; for Survival (days) 10 mg/kg sc: single 10 mg/kg sc in 3% ethanol and 7% Tween 80; for Activity (%) 10 mg/kg sc: single 10 mg/kg sc in 3% ethanol and 7% Tween 80 on day 1 post-infection; for Survival (days) 3 mg/kg SSV po / Activity (%) 3 mg/kg SSV po: single 3 mg/kg po in SSV
Procedure: In the single dose STI in vivo screen, Moro SPF or NMRI mice infected with the ANKA strain of P. berghei (groups of three mice) were treated on day one post-infection with trioxolanes dissolved or suspended in 3% ethanol and 7% Tween 80. […] SSV consists of 0.5% w/v CMC, 0.5% v/v benzyl alcohol, 0.4% v/v Tween 80, and 0.9% w/v sodium chloride in water. Antimalarial activity was measured by percent reduction in parasitemia on day three post-infection and survival times compared to an untreated control group. Survival to day 30 post-infection is considered to be a cure. […] Other factors influencing antimalarial activity include the stability of carbon radicals formed by β-scission subsequent to the initial electron transfer to the peroxide bond and the influence of steric effects remote from the peroxide bond on the interactions between carbon radicals and potential drug targets.
Moro NMRI male mice (Fu Albino specific pathogen free) weighing 18±2 g were infected intravenously (i.v.) with 2×10^7 P. berghei ANKA strain-infected erythrocytes from donor mice on day 0 of the experiment. From donor mice with circa 30% parasitemia, heparinized blood was taken and diluted in physiological saline to 10^8 parasitized erythrocytes per ml. An aliquot (0.2 ml) of this suspension was injected i.v. into experimental and control groups of mice. […] Throughout the experiments, mice were kept in groups of three or five animals in Makrolon type II cages in an air-conditioned animal room at 22 to 23° C.
They were administered per os (p.o.) in a total volume of 0.01 ml per gram of mouse. The activity of the compound was determined by a variety of methods outlined in subsequent sections. Survival time was also recorded, and survival to day 30 post-infection was considered to be a cure.

[1] = percent reduction in parasitemia on day 3
[2] = single 10 mg/kg po in standard suspending vehicle (SSV) on day 1 post-infection, percent reduction in parasitemia on day 3

| Compound | Survival (days) 10 mg/kg po | Activity (%) 10 mg/kg po [1] | Survival (days) 10 mg/kg SSV po | Activity (%) 10 mg/kg SSV po [2] | Survival (days) 10 mg/kg sc | Activity (%) 10 mg/kg sc [1] | Survival (days) 3 mg/kg SSV po | Activity (%) 3 mg/kg SSV po [1] | Activity (%) 10 mg/kg SSV po (po, 10 mg/kg) |
| --- | --- | --- | --- | --- | --- | --- | --- | --- | --- |
| O=C(c1ccncc1)N1CCC2(CC1)OOC1(O2)C2CC3CC(C2)CC1C3 (stereo not shown) [OZ100, Adamantane-2-spiro-3′-8′-(4′-pyridinylcarbonyl)-1′,2′,4′-trioxa-8′-azaspiro[4.5]decane] | 6.7 days | 61% | 6.3 days | 36% | 7.0 days | 80% | – | – | – |
| O=C(COc1ccc(Cl)cc1)N1CCC2(CC1)OOC1(O2)C2CC3CC(C2)CC1C3 (stereo not shown) [OZ101, Adamantane-2-spiro-3′-8′-(4′-chlorophenoxyacetyl)-1′,2′,4′-trioxa-8′-azaspiro[4.5]decane] | 6.3 days | 44% | 5.3 days | 0% | 13 days | 99.97% | – | – | – |
| O=C(Nc1ccccc1)N1CCC2(CC1)OOC1(O2)C2CC3CC(C2)CC1C3 (stereo not shown) [OZ102, Adamantane-2-spiro-3′-8′-(phenylaminocarbonyl)-1′,2′,4′-trioxa-8′-azaspiro[4.5]decane] | 7.0 days | 92% | 6.7 days | 73% | 19.7 days | 99.97% | – | – | – |
| O=C(Cn1ccnc1)N1CCC2(CC1)OOC1(O2)C2CC3CC(C2)CC1C3 (stereo not shown) [OZ103, Adamantane-2-spiro-3′-8′-(1′H-imidazol-1′-ylacetyl)-1′,2′,4′-trioxa-8′-azaspiro[4.5]decane] | 7.3 days | 86% | 6.7 days | 63% | 7.3 days | 87% | – | – | – |
| Cc1ccc(NC(=O)N2CCC3(CC2)OOC2(O3)C3CC4CC(C3)CC2C4)cc1 (stereo not shown) [OZ142] | 6.0 days | 0% | 6.3 days | 2% | 14.3 days | 99.98% | – | – | – |
| O=C(N1CCOCC1)N1CCC2(CC1)OOC1(O2)C2CC3CC(C2)CC1C3 (stereo not shown) [OZ188, Adamantane-2-spiro-3′-8′-(4′-morpholinylcarbonyl)-1′,2′,4′-trioxa-8′-azaspiro[4.5]decane] | 8.7 days | 93% | 10.0 days | 98% | 9.0 days | 99.87% | – | – | – |
| O=C(Nc1ccc(Cl)cc1)N1CCC2(CC1)OOC1(O2)C2CC3CC(C2)CC1C3 (stereo not shown) [OZ192, Adamantane-2-spiro-3′-8′-[(4′-chlorophenylamino)carbonyl]-1′,2′,4′-trioxa-8′-azaspiro[4.5]decane] | 6.0 days | 38% | 7.0 days | 45% | 13.7 days | 99.98% | – | – | – |
| O=C(NC[C@H]1CC[C@]2(CC1)OO[C@]1(O2)C2CC3CC(C2)CC1C3)N1CCOCC1 [OZ272] | – | – | 10.3 days | 98% | – | – | 6.6 days | 49% | – |
| OC1(Cc2nc3ccccc3s2)CCC2(CC1)OOC1(O2)C2CC3CC(C2)CC1C3 (stereo not shown) [OZ276] | – | – | 7.3/ND days | 17/ND % | – | – | – | – | – |
| O=C(NC[C@H]1CC[C@]2(CC1)OOC1(O2)C2CC3CC(C2)CC1C3)c1ccccc1O (stereo partly shown) [OZ280] | – | – | 5.7ND days | – | – | – | – | – | 0/ND % |
| O=C(NC[C@H]1CC[C@]2(CC1)OOC1(O2)C2CC3CC(C2)CC1C3)c1ccc(O)nc1 (stereo partly shown) [OZ282] | – | – | 8.3 days | 98.5% | – | – | 7.2 days | 53% | – |
| Nc1ncccc1C(=O)NC[C@H]1CC[C@]2(CC1)OOC1(O2)C2CC3CC(C2)CC1C3 (stereo partly shown) [OZ284] | – | – | 9.0 days | 97% | – | – | 7.8 days | 61% | – |
| NC(=O)c1ccc(NC[C@H]2CC[C@]3(CC2)OOC2(O3)C3CC4CC(C3)CC2C4)cc1 (stereo partly shown) [OZ286] | – | – | 8.7 days | 99.73% | – | – | 7.0 days | 60% | – |
| CCOC(=O)CNC[C@H]1CC[C@]2(CC1)OO[C@]1(O2)C2CC3CC(C2)CC1C3 [OZ290] | – | – | 9.0 days | 99.64% | – | – | 7.0 days | 95% | – |
| CCNC(=O)NC[C@H]1CC[C@]2(CC1)OO[C@]1(O2)C2CC3CC(C2)CC1C3 [OZ291] | – | – | 8.0 days | 98% | – | – | 6.8 days | 34% | – |
